Measurements: patent EP0007672A1, “Isocyanoalkenes, process and useful intermediates for their preparation, pharmaceutical and fungicidal preparations containing those isocyanoalkenes and the use of the fungicidal preparations in agriculture” (GIST-BROCADES N.V., priority 1978, dated 1980)
In brackets after ≈: the same amount, converted by molar mass. Read-outs that look alike come from different tables or passages of the source.

Assays:
Assay in all cases: MIC (Minimum Inhibitory Concentration)
Format in all cases: cell-based
Candida albicans = test system: Candida albicans
Text: (§1) In addition they may be used for combatting plant diseases, in particular as fungicides. A list of MIC (Minimum Inhibitory Concentration) values for a number of microorganisms is listed herebelow. The figures in the column headings refer to the compounds prepared according to the experimental examples in comparison with the spectrum of 1-[2-(2,4-dichlorophenyl)-2-{(2,4-dichlorophenyl)-methoxy} -ethyl7-1H-imidazole (better known under the name of miconazole, c.f. Merck Index 9th Ed. page 6047) or natamycin (pimaricin, c.f. Merck Index 9th Ed. page 7233).

Pasteurella multocida = details: read-out: MIC values
Text: as §1

[1] = test system: Streptococcus haemolyticus; details: read-out: MIC values
Text: as §1

Trichophyton equinum = test system: Trichophyton equinum
Text: as §1

[2] = test system: Trichophyton mentagrophytus
Text: as §1

Trichophyton quickeaneum = details: read-out: MIC values
Text: as §1

Trichophyton rubrum = test system: Trichophyton rubrum
Text: as §1

[3] = test system: Trichophyton schoenleinii; details: read-out: MIC values
Text: as §1

Trichophyton tonsurans = details: read-out: MIC values
Text: as §1

Trichophyton verrucosum = test system: Trichophyton verrucosum
Text: as §1

Trichophyton violoceum = details: read-out: MIC values
Text: as §1

## [C-]#[N+]C(=C1CCOCC1)S(=O)(=O)c1ccc(C)cc1 [Example 14a, a-(tetrahydropyran-4-ylidene)-a-(4-toluenesulphonyl)-methyl-isocyanide]
Candida albicans; read-out: MIC values, Candida albicans A 7
  MIC: 12.5 µg/mL (≈ 45.1 µM)
Candida albicans; read-out: MIC values, Candida albicans A 3140
  MIC: 12.5 µg/mL (≈ 45.1 µM)
Candida albicans; read-out: MIC values, Candida albicans A 3141
  MIC: 12.5 µg/mL (≈ 45.1 µM)
Candida albicans; read-out: MIC values, Candida albicans A 3142
  MIC: 12.5 µg/mL (≈ 45.1 µM)
Candida albicans; read-out: MIC values, Candida albicans A 3143
  MIC: 12.5 µg/mL (≈ 45.1 µM)
Candida albicans; read-out: MIC values, Candida albicans A 3144
  MIC: 25 µg/mL (≈ 90.1 µM)
Candida albicans; read-out: MIC values, Candida albicans A 3145
  MIC: 12.5 µg/mL (≈ 45.1 µM)
Candida albicans; read-out: MIC values, Candida albicans A 3165
  MIC: 12.5 µg/mL (≈ 45.1 µM)
Candida albicans; read-out: MIC values, Candida albicans A 3166
  MIC: 6 µg/mL (≈ 21.6 µM)
Candida albicans; read-out: MIC values, Candida albicans A 3167
  MIC: 6 µg/mL (≈ 21.6 µM)
Candida albicans; read-out: MIC values, Candida albicans A 3168
  MIC: 6 µg/mL (≈ 21.6 µM)
Candida albicans; read-out: MIC values, Candida albicans A 3169
  MIC: 6 µg/mL (≈ 21.6 µM)
Candida albicans; read-out: MIC values, Candida albicans A 3171
  MIC: 6 µg/mL (≈ 21.6 µM)
Candida albicans; read-out: MIC values, Candida albicans A 3184
  MIC: 12.5 µg/mL (≈ 45.1 µM)
Candida albicans; read-out: MIC values, Candida albicans A 3190
  MIC: 12.5 µg/mL (≈ 45.1 µM)
Candida albicans; read-out: MIC values, Candida albicans A 3191
  MIC: 12.5 µg/mL (≈ 45.1 µM)
Candida albicans; read-out: MIC values, Candida albicans A 3192
  MIC: 12.5 µg/mL (≈ 45.1 µM)
Candida albicans; read-out: MIC values, Candida albicans A 3194
  MIC: 12.5 µg/mL (≈ 45.1 µM)
Candida albicans; read-out: MIC values, Candida albicans A 3196
  MIC: 12.5 µg/mL (≈ 45.1 µM)
Pasteurella multocida; Pasteurella multocida
  MIC: 6 µg/mL (≈ 21.6 µM)
[1]; Streptococcus
  MIC: 25 µg/mL (≈ 90.1 µM)
Trichophyton equinum; read-out: MIC values, Trichophyton equinum 182-76
  MIC: 25 µg/mL (≈ 90.1 µM)
Trichophyton equinum; read-out: MIC values, Trichophyton equinum 441-51
  MIC: 6 µg/mL (≈ 21.6 µM)
[2]; read-out: MIC values, Trichophyton mentagrophytus 367-68
  MIC: 25 µg/mL (≈ 90.1 µM)
[2]; read-out: MIC values, Trichophyton mentagrophytus 421-67
  MIC: 25 µg/mL (≈ 90.1 µM)
[2]; read-out: MIC values, Trichophyton mentagrophytus A 3252
  MIC: 25 µg/mL (≈ 90.1 µM)
[2]; read-out: MIC values, Trichophyton mentagrophytus R 177
  MIC: 12.5 µg/mL (≈ 45.1 µM)
[2]; read-out: MIC values, Trichophyton mentagrophytus R 178
  MIC: 100 µg/mL (≈ 361 µM)
Trichophyton quickeaneum; Trichophyton
  MIC: 25 µg/mL (≈ 90.1 µM)
Trichophyton rubrum; read-out: MIC values, Trichophyton rubrum 218-65
  MIC: 3 µg/mL (≈ 10.8 µM)
Trichophyton rubrum; read-out: MIC values, Trichophyton rubrum 494-62
  MIC: 25 µg/mL (≈ 90.1 µM)
Trichophyton rubrum; read-out: MIC values, Trichophyton rubrum A 810
  MIC: 12.5 µg/mL (≈ 45.1 µM)
[3]; Trichophyton schoenleinii
  MIC: 6 µg/mL (≈ 21.6 µM)
Trichophyton tonsurans; Trichophyton tonsurans
  MIC: 0.75 µg/mL (≈ 2.7 µM)
Trichophyton verrucosum; read-out: MIC values, Trichophyton verrucosum 134-66
  MIC: 3 µg/mL (≈ 10.8 µM)
Trichophyton verrucosum; read-out: MIC values, Trichophyton verrucosum A 2922
  MIC: 3 µg/mL (≈ 10.8 µM)
Trichophyton violoceum; Trichophyton
  MIC: 12.5 µg/mL (≈ 45.1 µM)

## [C-]#[N+]C(=C(CCCCC)CCCCC)S(=O)(=O)c1ccc(C)cc1 [Example 26, 1-isocyana-2-pentyl-1-(4-toluenesulphonyl)-1-heptene]
Candida albicans; Candida albicans A 7, read-out: MIC values
  MIC: 50 µg/mL (≈ 144 µM)
Candida albicans; Candida albicans A 3140, read-out: MIC values
  MIC: 6 µg/mL (≈ 17.3 µM)
Candida albicans; Candida albicans A 3141, read-out: MIC values
  MIC: 25 µg/mL (≈ 71.9 µM)
Candida albicans; Candida albicans A 3142, read-out: MIC values
  MIC: 25 µg/mL (≈ 71.9 µM)
Candida albicans; Candida albicans A 3143, read-out: MIC values
  MIC: 50 µg/mL (≈ 144 µM)
Candida albicans; Candida albicans A 3144, read-out: MIC values
  MIC: 100 µg/mL (≈ 288 µM)
Candida albicans; Candida albicans A 3145, read-out: MIC values
  MIC: 25 µg/mL (≈ 71.9 µM)
Candida albicans; Candida albicans A 3165, read-out: MIC values
  MIC: 50 µg/mL (≈ 144 µM)
Candida albicans; Candida albicans A 3166, read-out: MIC values
  MIC: 25 µg/mL (≈ 71.9 µM)
Candida albicans; Candida albicans A 3167, read-out: MIC values
  MIC: > 100 µg/mL
Candida albicans; Candida albicans A 3168, read-out: MIC values
  MIC: 100 µg/mL (≈ 288 µM)
Candida albicans; Candida albicans A 3169, read-out: MIC values
  MIC: 25 µg/mL (≈ 71.9 µM)
Candida albicans; Candida albicans A 3171, read-out: MIC values
  MIC: 50 µg/mL (≈ 144 µM)
Candida albicans; Candida albicans A 3184, read-out: MIC values
  MIC: 50 µg/mL (≈ 144 µM)
Candida albicans; Candida albicans A 3190, read-out: MIC values
  MIC: 50 µg/mL (≈ 144 µM)
Candida albicans; Candida albicans A 3191, read-out: MIC values
  MIC: > 100 µg/mL
Candida albicans; Candida albicans A 3192, read-out: MIC values
  MIC: 50 µg/mL (≈ 144 µM)
Candida albicans; Candida albicans A 3194, read-out: MIC values
  MIC: 50 µg/mL (≈ 144 µM)
Candida albicans; Candida albicans A 3196, read-out: MIC values
  MIC: 50 µg/mL (≈ 144 µM)
Pasteurella multocida; Pasteurella multocida A 723
  MIC: 100 µg/mL (≈ 288 µM)
[1]; Streptococcus haemolyticus A 1088
  MIC: > 100 µg/mL
Trichophyton equinum; Trichophyton equinum 182-76, read-out: MIC values
  MIC: > 100 µg/mL
Trichophyton equinum; Trichophyton equinum 856-71, read-out: MIC values
  MIC: 50 µg/mL (≈ 144 µM)
[2]; Trichophyton mentagrophytus 367-68, read-out: MIC values
  MIC: > 100 µg/mL
[2]; Trichophyton mentagrophytus 421-67, read-out: MIC values
  MIC: 100 µg/mL (≈ 288 µM)
[2]; Trichophyton mentagrophytus A 3252, read-out: MIC values
  MIC: > 100 µg/mL
[2]; Trichophyton mentagrophytus R 177, read-out: MIC values
  MIC: > 100 µg/mL
[2]; Trichophyton mentagrophytus R 178, read-out: MIC values
  MIC: > 100 µg/mL
[2]; Trichophyton mentagrophytus RRL 305, read-out: MIC values
  MIC: > 100 µg/mL
Trichophyton quickeaneum; Trichophyton quickeaneum A 2040
  MIC: > 100 µg/mL
Trichophyton rubrum; Trichophyton rubrum 218-65, read-out: MIC values
  MIC: 100 µg/mL (≈ 288 µM)
Trichophyton rubrum; Trichophyton rubrum 494-62, read-out: MIC values
  MIC: 100 µg/mL (≈ 288 µM)
Trichophyton rubrum; Trichophyton rubrum A 810, read-out: MIC values
  MIC: 50 µg/mL (≈ 144 µM)
[3]; Trichophyton schoenleinii 435-63
  MIC: 100 µg/mL (≈ 288 µM)
Trichophyton tonsurans; Trichophyton tonsurans 561-50
  MIC: 100 µg/mL (≈ 288 µM)
Trichophyton violoceum; Trichophyton violoceum 442-62
  MIC: 100 µg/mL (≈ 288 µM)
